Test [1] deals with human sodium channel NaV1.2 (Homo sapiens, UniProt Q99250). Put plainly: NaV1.2 inhibition, automated patch-clamp (Q-Patch HTX), slow inactivated state (state C). In kind it is cell-based. Particulars: hNaV1.2 CHO cells, slow inactivated state; for inhibition at 10 µM: 10 μM compound, read-out: NaV1.2 (% inh), 10 μM; for IC50: read-out: NaV1.2 IC50; for inhibition at 1 µM: 1 μM compound, read-out: NaV1.2 (% inh), 1 μM. The essentials:
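CHO K-1 cells stably expressing human NaV1.2, whole-cell automated patch clamp, holding −100 mV; slow-inactivated state (state C) read at a 5 ms step to 0 mV after 10 s at −50 mV and 15 ms at −90 mV. Percent inhibition vs vehicle; IC50 by nonlinear least-squares fit.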
On the technique in general: In patch-clamp work, channel activity is measured electrically.

Test [2] concerns the target T1, recombinant human serotonin receptor 5-HT2A (Homo sapiens, UniProt P28223).
T1 construct: expressed in transfected cells; method B: loaded with Ca2+ dye
Put plainly: 5-HT2A antagonist Ca2+ assay in CHO-K1 cells (method A aequorin luminescence / method B FLIPR fluorescence). In kind it is cell-based. To be noted: antagonist mode vs EC80 of reference agonist, method A or B, read-out: 5HT2A IC50. A digest of the protocol:
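Method A: CHO-K1 cells co-expressing human 5-HT2A and mitochondrial apoaequorin were given reference agonist at EC80 15 min after compound, with luminescence read. Method B: dye-loaded 5-HT2A CHO-K1 cells were pretreated with compound, then given serotonin at EC80, with FLIPR fluorescence read. IC50s came from nonlinear fits of percent inhibition.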

From patent US11186564B2, “Dual NAV1.2/5HT2a inhibitors for treating CNS disorders” (Sunovion Pharmaceuticals Inc., priority 2016, dated 2021) come the findings set out here.

Where a name gives a salt, the structure may show the parent alone.

human sodium channel NaV1.2, sequence (Q99250 whole entry): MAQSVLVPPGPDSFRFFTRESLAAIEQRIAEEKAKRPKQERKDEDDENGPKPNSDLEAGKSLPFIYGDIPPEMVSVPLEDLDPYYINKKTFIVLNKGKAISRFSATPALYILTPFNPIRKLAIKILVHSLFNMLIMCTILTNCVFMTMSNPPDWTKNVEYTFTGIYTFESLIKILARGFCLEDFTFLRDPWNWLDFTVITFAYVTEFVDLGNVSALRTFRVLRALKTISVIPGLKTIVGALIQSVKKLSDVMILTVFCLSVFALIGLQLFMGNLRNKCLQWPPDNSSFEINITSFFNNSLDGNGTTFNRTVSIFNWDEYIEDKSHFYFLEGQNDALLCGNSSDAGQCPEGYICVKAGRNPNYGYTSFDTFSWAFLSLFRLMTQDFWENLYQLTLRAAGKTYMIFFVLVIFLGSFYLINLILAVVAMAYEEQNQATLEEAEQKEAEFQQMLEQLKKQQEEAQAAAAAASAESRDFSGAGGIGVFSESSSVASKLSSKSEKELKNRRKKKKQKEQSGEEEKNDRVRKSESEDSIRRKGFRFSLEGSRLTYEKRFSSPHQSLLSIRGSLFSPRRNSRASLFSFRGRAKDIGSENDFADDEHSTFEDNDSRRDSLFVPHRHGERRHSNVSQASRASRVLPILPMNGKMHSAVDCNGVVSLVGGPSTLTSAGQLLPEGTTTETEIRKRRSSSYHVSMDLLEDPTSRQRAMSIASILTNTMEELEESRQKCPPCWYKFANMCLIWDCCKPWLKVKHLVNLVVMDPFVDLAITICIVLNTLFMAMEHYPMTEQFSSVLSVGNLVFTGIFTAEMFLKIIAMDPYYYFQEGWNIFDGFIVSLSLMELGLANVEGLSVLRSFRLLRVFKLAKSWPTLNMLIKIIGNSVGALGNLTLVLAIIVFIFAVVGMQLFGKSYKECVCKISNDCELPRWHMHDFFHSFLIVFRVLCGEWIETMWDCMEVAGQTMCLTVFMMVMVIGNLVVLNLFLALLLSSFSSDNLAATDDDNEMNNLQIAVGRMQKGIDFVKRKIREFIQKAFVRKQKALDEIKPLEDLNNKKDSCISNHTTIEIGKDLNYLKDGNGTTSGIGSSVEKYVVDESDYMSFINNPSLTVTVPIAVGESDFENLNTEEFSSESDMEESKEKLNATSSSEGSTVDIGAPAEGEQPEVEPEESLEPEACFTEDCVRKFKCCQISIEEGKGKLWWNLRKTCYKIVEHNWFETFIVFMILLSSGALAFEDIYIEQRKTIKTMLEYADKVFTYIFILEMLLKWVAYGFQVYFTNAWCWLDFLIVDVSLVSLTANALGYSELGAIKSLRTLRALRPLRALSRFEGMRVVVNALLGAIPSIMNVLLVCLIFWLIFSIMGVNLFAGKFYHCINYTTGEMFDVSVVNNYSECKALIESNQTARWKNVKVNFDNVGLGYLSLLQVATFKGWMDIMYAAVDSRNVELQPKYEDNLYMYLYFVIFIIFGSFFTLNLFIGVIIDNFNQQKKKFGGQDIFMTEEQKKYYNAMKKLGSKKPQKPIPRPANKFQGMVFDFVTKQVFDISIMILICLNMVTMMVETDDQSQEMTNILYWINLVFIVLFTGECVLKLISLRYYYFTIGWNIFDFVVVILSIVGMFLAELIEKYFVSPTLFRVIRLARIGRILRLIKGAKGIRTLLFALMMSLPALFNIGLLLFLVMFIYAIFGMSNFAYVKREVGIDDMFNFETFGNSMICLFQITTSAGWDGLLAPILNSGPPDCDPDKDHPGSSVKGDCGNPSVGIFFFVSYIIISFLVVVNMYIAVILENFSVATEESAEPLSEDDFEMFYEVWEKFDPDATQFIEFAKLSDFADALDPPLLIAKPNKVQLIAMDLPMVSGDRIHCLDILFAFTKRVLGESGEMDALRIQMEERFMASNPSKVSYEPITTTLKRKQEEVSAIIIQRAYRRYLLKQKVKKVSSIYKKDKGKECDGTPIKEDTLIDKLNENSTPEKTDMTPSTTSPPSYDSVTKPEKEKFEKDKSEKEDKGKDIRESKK
T1 sequence (P28223 whole entry): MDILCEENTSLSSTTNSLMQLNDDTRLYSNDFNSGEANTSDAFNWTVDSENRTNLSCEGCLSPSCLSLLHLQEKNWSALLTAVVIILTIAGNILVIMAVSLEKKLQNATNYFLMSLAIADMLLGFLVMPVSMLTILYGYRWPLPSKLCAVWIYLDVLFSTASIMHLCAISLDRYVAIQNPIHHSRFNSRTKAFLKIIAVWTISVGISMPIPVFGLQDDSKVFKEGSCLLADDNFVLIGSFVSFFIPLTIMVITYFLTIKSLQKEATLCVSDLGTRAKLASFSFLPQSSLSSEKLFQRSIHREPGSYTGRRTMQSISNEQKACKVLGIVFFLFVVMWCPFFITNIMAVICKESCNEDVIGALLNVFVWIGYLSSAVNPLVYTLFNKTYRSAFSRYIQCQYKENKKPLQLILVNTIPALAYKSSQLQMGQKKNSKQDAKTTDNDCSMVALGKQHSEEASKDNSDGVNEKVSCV

As usually defined, the IC50 is the concentration at which inhibition is half-maximal. For the compound `NCCOc1ccc2c(c1)C(CN1CCC(Oc3ccc(F)cc3)CC1)CC2` (centres unmarked) [Example 114, 2-((3-((4-(4-fluorophenoxy)piperidin-1-yl)methyl)-2,3-dihydro-1H-inden-5-yl)oxy)ethan-1-amine], the inhibition at 10 µM in test [1] worked out at 52%. The half-maximal inhibitory concentration (IC50) in test [2] was 70 nM.

As for `Nc1ccc2c(c1)C(CN1CCC(Oc3ccc(F)cc3)CC1)CC2` (centres unmarked) [Example 115, 3-((4-(4-fluorophenoxy)piperidin-1-yl)methyl)-2,3-dihydro-1H-inden-5-amine], the concentration for half-maximal inhibition (IC50) in test [1] is 2580 nM; in test [2], < 1 nM.

Turning to `CN(C)c1ccc2c(c1)C(CN1CCC(Oc3ccc(F)cc3)CC1)CC2` (centres unmarked) [Example 116, 3-((4-(4-fluorophenoxy)piperidin-1-yl)methyl)-N,N-dimethyl-2,3-dihydro-1H-inden-5-amine], the IC50 in test [1] was 2340 nM; in test [2], 10 nM.

Regarding `COc1ccc2c(c1)C(CN1CCC(Oc3ccncc3)CC1)CC2` (centres unmarked) [Example 117, 4-((1-((6-methoxy-2,3-dihydro-1H-inden-1-yl)methyl)piperidin-4-yl)oxy)pyridine], in test [1], the inhibition at 1 µM is 1%. Moreover, the concentration for half-maximal inhibition (IC50) in test [2] came out at 580 nM.

With `Fc1ccc(OC2CCN(CC3CCc4cccc(F)c43)CC2)cc1` (centres unmarked) [Example 119, 1-((7-fluoro-2,3-dihydro-1H-inden-1-yl)methyl)-4-(4-fluorophenoxy)piperidine], the IC50 in test [1] turned out to be 180 nM; in test [2], 20 nM.

With `N#Cc1ccc2c(c1)CCC2CN1CCC(Oc2ccc(F)cc2)CC1` (centres unmarked) [Example 121], the IC50 was found to be 2090 nM in test [1] and 70 nM in test [2].

With `N#Cc1cccc2c1CCC2CN1CCC(Oc2ccc(F)cc2)CC1` (centres unmarked) [Example 122, 1-((4-(4-fluorophenoxy)piperidin-1-yl)methyl)-2,3-dihydro-1H-indene-4-carbonitrile], the IC50 turned out to be 110 nM in test [1] and 90 nM in test [2].

With `CC(C1CCc2ccccc21)N1CCC(Oc2ccc(F)cc2)CC1` (centres unmarked) [Example 123, 1-(1-(2,3-dihydro-1H-inden-1-yl)ethyl)-4-(4-fluorophenoxy)piperidine], the inhibition at 1 µM in test [1] turned out to be 71%. Further, the half-inhibitory concentration (IC50) in test [2] is 440 nM.

`COc1ccc2c(c1)C(CN1CCC(Oc3cccc(C)n3)CC1)CC2` (centres unmarked) [Example 124, 2-((1-((6-methoxy-2,3-dihydro-1H-inden-1-yl)methyl)piperidin-4-yl)oxy)-6-methylpyridine]: the inhibition at 1 µM in test [1] came to 34%. The IC50 in test [2] was 120 nM.

In the case of `c1cnc(OC2CCN(CC3CCc4ccccc43)CC2)nc1` (centres unmarked) [Example 125, 2-((1-((2,3-dihydro-1H-inden-1-yl)methyl)piperidin-4-yl)oxy) pyrimidine], the inhibition at 1 µM in test [1] is -3%. Further, the half-maximal inhibitory concentration (IC50) in test [2] amounted to 80 nM.

Turning to `Fc1ccc(OC2CCN(CC3CCc4cccnc43)CC2)cc1` (centres unmarked) [Example 128, 7-((4-(4-fluorophenoxy)piperidin-1-yl)methyl)-6,7-dihydro-5H-cyclopenta[b]pyridine], the inhibition at 10 µM in test [1] worked out at 72%. In test [2], the concentration for half-maximal inhibition (IC50) was 50 nM.

Consider `COc1ccccc1OC1CCN(CC2c3ccccc3OC2(C)C)CC1` (centres unmarked) [Example 129, 1-((2,2-dimethyl-2,3-dihydrobenzofuran-3-yl)methyl)-4-(2-methoxyphenoxy)piperidine], for which the IC50 in test [1] is 1060 nM; in test [2], 400 nM.

Regarding `CC1(C)Oc2ccccc2C1CN1CCC(Oc2ccccc2)CC1` (centres unmarked) [Example 131, 1-((2,2-dimethyl-2,3-dihydrobenzofuran-3-yl)methyl)-4-phenoxypiperidine], in test [1], the inhibition at 1 µM is -1%. For the same compound, the IC50 in test [2] was found to be 290 nM.

Turning to `Fc1ccc(OC2CCN(CC3COc4ccccc43)CC2)cc1` (centres unmarked) [Example 134, 1-((2,3-dihydrobenzofuran-3-yl)methyl)-4-(4-fluorophenoxy)piperidine], the inhibition at 1 µM in test [1] amounted to 14%. Besides, in test [2], the IC50 is 20 nM.

With `COc1ccccc1OC1CCN(CC2Cc3ccccc3C2)CC1` [Example 136, 1-((2,3-dihydro-1H-inden-2-yl)methyl)-4-(2-methoxyphenoxy)piperidine], the inhibition at 1 µM in test [1] was determined as 50%. The concentration for half-maximal inhibition (IC50) in test [2] amounted to 60 nM.

As to `Cc1ccccc1OC1CCN(CC2Cc3cccnc3C2)CC1` (centres unmarked) [Example 137, 6-((4-(o-tolyloxy)piperidin-1-yl)methyl)-6,7-dihydro-5H-cyclopenta[b] pyridine], in test [1], the inhibition at 1 µM is 44%. In addition, the 50% inhibitory concentration (IC50) in test [2] turned out to be 40 nM.

For the compound `N#Cc1ccccc1OC1CCN(CC2Cc3cccnc3C2)CC1` (centres unmarked) [Example 138, 2-((1-((6,7-dihydro-5H-cyclopenta[b]pyridin-6-yl)methyl)piperidin-4-yl)oxy) benzonitrile], the inhibition at 1 µM in test [1] is 10%. In addition, the IC50 in test [2] is 130 nM.

For the compound `COc1ccccc1OC1CCN(CC2Cc3cccnc3C2)CC1` (centres unmarked) [Example 139, 6-((4-(2-methoxyphenoxy)piperidin-1-yl)methyl)-6,7-dihydro-5H-cyclopenta[b]pyridine], in test [1], the inhibition at 1 µM was -10%. Besides, the IC50 in test [2] was 180 nM.

For the compound `COc1ccccc1O[C@@H]1CCN(CC2Cc3ccccc3C2)[C@H](C)C1` [Example 140, (2R,4R)-1-((2,3-dihydro-1H-inden-2-yl)methyl)-4-(2-methoxyphenoxy)-2-methylpiperidine], the figures for the half-maximal inhibitory concentration (IC50) in test [1] and in test [2] were 510 nM and 630 nM, respectively.

In the case of `COc1ccccc1O[C@H]1CCN(CC2Cc3ccccc3C2)[C@H](C)C1` [Example 141, (2R,4S)-1-((2,3-dihydro-1H-inden-2-yl)methyl)-4-(2-methoxyphenoxy)-2-methylpiperidine], the concentration for half-maximal inhibition (IC50) in test [1] was determined as 1010 nM; in test [2], 200 nM.

Turning to `COc1ccccc1O[C@@H]1CCN(CC2Cc3ccccc3C2)[C@@H](C)C1` [Example 142, (2S,4R)-1-((2,3-dihydro-1H-inden-2-yl)methyl)-4-(2-methoxyphenoxy)-2-methylpiperidine], the IC50 in test [1] was found to be 910 nM; in test [2], 300 nM.

On to `COc1ccccc1O[C@@H]1CCN(CC2Cc3ccccc3C2)C[C@@H]1C` [Example 144, (3S,4R)-1-((2,3-dihydro-1H-inden-2-yl)methyl)-4-(2-methoxyphenoxy)-3-methylpiperidine], for which the IC50 in test [1] amounted to 540 nM; in test [2], 270 nM.

Take `COc1ccccc1O[C@H]1CCN(CC2Cc3cccnc3C2)[C@@H](C)C1` (stereo partly drawn) [Example 150, 6-(((2S,4S)-4-(2-methoxyphenoxy)-2-methylpiperidin-1-yl)methyl)-6,7-dihydro-5H-cyclopenta[b]pyridine]: the inhibition at 1 µM in test [1] is 14%. For the same compound, in test [2], the IC50 was 720 nM.

As to `Fc1ccc(OC2CCN(CC3Cc4ccccc4C3)CC2)cc1` [Example 154, 1-((2,3-dihydro-1H-inden-2-yl)methyl)-4-(4-fluorophenoxy)piperidine], the inhibition at 1 µM in test [1] worked out at 35%. The IC50 in test [2] was 170 nM.

As to `Fc1ccc(OC2CCN(CC3Cc4cccnc4C3)CC2)cc1` (centres unmarked) [Example 155, 6-((4-(4-fluorophenoxy)piperidin-1-yl)methyl)-6,7-dihydro-5H-cyclopenta[b]pyridine dihydrochloride], the IC50 in test [1] worked out at 1000 nM; in test [2], 40 nM.

With `Fc1ccc(OC2CCN(CC3Cc4ccncc4C3)CC2)cc1` (centres unmarked) [Example 158, 6-((4-(4-fluorophenoxy)piperidin-1-yl)methyl)-6,7-dihydro-5H-cyclopenta[c]pyridine], in test [1], the inhibition at 1 µM was -15%. Besides, the 50% inhibitory concentration (IC50) in test [2] came to 150 nM.

For `OC1(CN2CCC(Oc3ccc(F)cc3)CC2)COCc2ccccc21` (centres unmarked) [Example 159, 4-((4-(4-fluorophenoxy)piperidin-1-yl)methyl)isochroman-4-ol], the inhibition at 10 µM in test [1] was 77%. Also, the IC50 in test [2] came out at 20 nM.

`Fc1ccc(OC2CCN(CC3COCc4ccccc43)CC2)cc1` (centres unmarked) [Example 160, 4-(4-fluorophenoxy)-1-(isochroman-4-ylmethyl)piperidine]: the inhibition at 1 µM in test [1] came to 32%. Also, in test [2], the IC50 was 130 nM.

Consider `N#Cc1ccccc1OC1CCN(CC2CCOc3ccccc32)CC1` (centres unmarked) [Example 161, 2-((1-(chroman-4-ylmethyl)piperidin-4-yl)oxy)benzonitrile], for which the inhibition at 1 µM in test [1] came out at 12%. Moreover, in test [2], the concentration for half-maximal inhibition (IC50) was 50 nM.

As for `COc1ccccc1OC1CCN(CC2CCOc3ccccc32)CC1` (centres unmarked) [Example 162, 1-(chroman-4-ylmethyl)-4-(2-methoxyphenoxy)piperidine], the inhibition at 1 µM in test [1] stood at 32%. Moreover, in test [2], the IC50 came to 90 nM.

Consider `Fc1ccc(OC2CCN(CC3CCOc4ccccc43)CC2)cc1` (centres unmarked) [Example 165, 1-(chroman-4-ylmethyl)-4-(4-fluorophenoxy)piperidine], for which the values for the half-inhibitory concentration (IC50) in test [1] and in test [2] were 910 nM and 20 nM, respectively.

As for `N#Cc1ccc(OC2CCN(CC3CCOc4ccccc43)CC2)cc1` (centres unmarked) [Example 166, 4-((1-(chroman-4-ylmethyl)piperidin-4-yl)oxy)benzonitrile], the inhibition at 1 µM in test [1] is -2%. Further, the IC50 in test [2] was 310 nM.

As for `O=C1CCC(c2ccc(F)cc2)=NN1CN1CCC(Oc2ccc(F)cc2)CC1` [Example 167, 2-((4-(4-fluorophenoxy)piperidin-1-yl)methyl)-6-(4-fluorophenyl)-4,5-dihydropyridazin-3(2H)-one], the inhibition at 1 µM in test [1] worked out at 13%. The concentration for half-maximal inhibition (IC50) in test [2] stood at 90 nM.

`Fc1ccc(OC2CCN(CCC3CCCCO3)CC2)cc1` (centres unmarked) [Example 168, 4-(4-fluorophenoxy)-1-(2-(tetrahydro-2H-pyran-2-yl)ethyl)piperidine]: the inhibition at 1 µM in test [1] was 2%. The IC50 in test [2] worked out at 130 nM.
